The source of these data is ChEMBL document CHEMBL3526152, “Cytoprotective effect of 20S-Rg3 on benzo[a]pyrene-induced DNA damage” (Drug Metab Dispos, 2012).

SMILES strings stand for the structures. Activity calls are given as the source filed them. No cut-off for these calls is given here.

The subject of series [1] is HDF. The experiment in a line: Cytoprotective activity in neonatal HDF assessed as reduction of BaP-induced cell death at 10 uM after 24 hrs by MTT assay. As to conditions: Homo sapiens. The class given is functional. In general terms: Formazan colour is commonly taken as a measure of viable cells.
A short description of series [2]: Cytoprotective activity in neonatal HDF assessed as reduction of BaP-induced DNA strand breakage by measuring tunnel positive cells at 10 uM after 24 hrs (reference value: 15.96%). It is filed as functional, Homo sapiens. Details: scale not given: the % may be the effect or the level left.
Series [3] relates to HDF. As to the kind of experiment: Cytoprotective activity in neonatal HDF assessed as reduction of BaP-induced tail moment at 10 uM after 24 hrs by comet assay. The class given is functional. As to conditions: Homo sapiens.
The nature of series [4]: Cytotoxicity against neonatal HDF assessed as cell viability at 10 uM after 24 hrs by MTT assay relative to control. It is filed as functional. The note with it: Homo sapiens, read-out: Activity.
The target in series [5] is T1, Nuclear factor erythroid 2-related factor 2 (Homo sapiens) (UniProt Q16236).
T1 sequence (whole entry): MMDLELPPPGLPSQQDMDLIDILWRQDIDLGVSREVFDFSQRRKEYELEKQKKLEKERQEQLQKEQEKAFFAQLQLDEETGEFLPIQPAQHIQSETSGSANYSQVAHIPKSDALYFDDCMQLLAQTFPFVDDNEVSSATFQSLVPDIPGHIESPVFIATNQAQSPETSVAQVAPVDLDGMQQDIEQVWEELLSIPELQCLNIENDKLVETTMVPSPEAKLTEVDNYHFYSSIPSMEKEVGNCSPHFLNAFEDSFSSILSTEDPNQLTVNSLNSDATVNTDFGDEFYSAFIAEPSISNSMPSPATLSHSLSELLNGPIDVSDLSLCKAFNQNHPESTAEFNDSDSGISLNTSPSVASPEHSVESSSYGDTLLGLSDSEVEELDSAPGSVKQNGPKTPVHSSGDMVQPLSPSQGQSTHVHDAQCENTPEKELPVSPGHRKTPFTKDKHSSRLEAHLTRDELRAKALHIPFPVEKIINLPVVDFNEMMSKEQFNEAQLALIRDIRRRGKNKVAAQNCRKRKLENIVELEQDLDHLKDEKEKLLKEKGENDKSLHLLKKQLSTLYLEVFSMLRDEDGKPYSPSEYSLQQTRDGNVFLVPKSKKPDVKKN
As to the kind of experiment: Induction of Nrf2 nuclear translocation in BaP-treated neonatal HDF assessed as upregulation of NQO1 mRNA expression at 10 uM after 24 hrs by real-time PCR analysis relative to BaP-treated control. On the technique in general: In qPCR the cycle at which signal appears reflects the starting amount.

Series [6] concerns HDF. The experiment in a line: Cytoprotective activity in neonatal HDF assessed as reduction of BaP-induced tail moment at 10 uM after 24 hrs by comet assay in presence of PI3K/Akt inhibitor LY294002. The note with it: Homo sapiens. The class given is functional.
In series [7] the target is T1, Nuclear factor erythroid 2-related factor 2 (Homo sapiens). The experiment in a line: Induction of Nrf2 nuclear translocation in BaP-treated neonatal HDF at 10 uM after 2 hrs by DAPI staining-based confocal scanning laser microcopic analysis in presence of PI3K/Akt inhibitor LY294002.
For series [8] the target is unchanged. The experiment in a line: Induction of Nrf2 nuclear translocation in neonatal HDF at 10 uM after 2 hrs by DAPI staining-based confocal scanning laser microcopic analysis.
Series [9] has as its target T2, Nuclear receptor subfamily 1 group I member 2 (Homo sapiens, UniProt O75469).
T2 sequence (O75469 whole entry): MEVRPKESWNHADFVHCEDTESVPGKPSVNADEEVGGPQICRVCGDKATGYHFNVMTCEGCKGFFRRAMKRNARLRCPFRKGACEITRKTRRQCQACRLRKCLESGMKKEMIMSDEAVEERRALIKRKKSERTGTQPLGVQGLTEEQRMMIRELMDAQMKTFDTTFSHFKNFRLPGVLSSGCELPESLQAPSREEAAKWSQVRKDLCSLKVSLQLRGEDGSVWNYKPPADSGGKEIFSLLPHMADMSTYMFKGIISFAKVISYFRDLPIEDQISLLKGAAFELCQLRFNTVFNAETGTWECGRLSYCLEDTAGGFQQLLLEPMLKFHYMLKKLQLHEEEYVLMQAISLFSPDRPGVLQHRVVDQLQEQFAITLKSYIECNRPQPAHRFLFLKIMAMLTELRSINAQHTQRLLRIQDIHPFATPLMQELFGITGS
As to the kind of experiment: Competitive binding affinity to PXR in human HepG2 cells at 0.01 to 50 uM by FRET analysis in presence of […]. It is filed as cell-based.

The target in series [10] is RAC-alpha serine/threonine-protein kinase (Homo sapiens) (UniProt P31749). The experiment in a line: Induction of AKT phosphorylation at Ser473 in neonatal HDF at 10 uM by Western blot analysis. As to conditions: TDE = time-dependent effect. A general note: In western blotting, separated proteins are transferred to a membrane and probed.
The next series has as its system Plasma. As to the kind of experiment: Plasma concentration in human at 60 mg by HPLC-MS analysis. The class given is ADME.
The species entered for another series is Homo sapiens. As to the kind of experiment: Induction of ERK phosphorylation at Thr202/Try204 in neonatal HDF at 10 uM by Western blot analysis. The note with it: TDE = time-dependent effect.
Series [11] concerns the target T1, Nuclear factor erythroid 2-related factor 2 (Homo sapiens). As to the kind of experiment: Induction of Nrf2 nuclear translocation in BaP-treated neonatal HDF at 10 uM after 2 hrs by DAPI staining-based confocal scanning laser microcopic analysis.
The test system of series [12] is HepG2. The experiment in a line: Cytoprotective activity in human HepG2 cells assessed as reduction of BaP-induced tail moment at 10 uM after 24 hrs by comet assay. It is filed as functional, cell-based.
Series [13] has as its system HepG2. The experiment in a line: Cytoprotective activity in human HepG2 cells transfected with siPXR assessed as reduction of BaP-induced tail moment at 10 uM after 24 hrs by comet assay. It is filed as functional, cell-based.

RAC-alpha serine/threonine-protein kinase (Homo sapiens), sequence (P31749 whole entry): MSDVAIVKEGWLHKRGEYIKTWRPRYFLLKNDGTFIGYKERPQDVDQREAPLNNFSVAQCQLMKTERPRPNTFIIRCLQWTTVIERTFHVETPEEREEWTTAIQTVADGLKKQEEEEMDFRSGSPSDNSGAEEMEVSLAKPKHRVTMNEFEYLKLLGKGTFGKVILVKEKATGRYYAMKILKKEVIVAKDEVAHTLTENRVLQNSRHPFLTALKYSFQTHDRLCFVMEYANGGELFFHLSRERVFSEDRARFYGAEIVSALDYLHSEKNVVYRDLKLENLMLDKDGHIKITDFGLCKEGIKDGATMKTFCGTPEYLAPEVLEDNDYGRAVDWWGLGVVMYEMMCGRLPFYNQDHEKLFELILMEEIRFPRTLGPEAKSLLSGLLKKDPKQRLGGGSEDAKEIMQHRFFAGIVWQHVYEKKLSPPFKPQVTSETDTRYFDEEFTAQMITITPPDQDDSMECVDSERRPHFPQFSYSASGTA

Consider `CC(C)=CCC[C@](C)(O[C@@H]1O[C@H](CO[C@@H]2O[C@H](CO)[C@@H](O)[C@H](O)[C@H]2O)[C@@H](O)[C@H](O)[C@H]1O)[C@H]1CC[C@]2(C)[C@@H]1[C@H](O)C[C@@H]1[C@@]3(C)CC[C@H](O[C@@H]4O[C@H](CO)[C@@H](O)[C@H](O)[C@H]4O[C@@H]4O[C@H](CO)[C@@H](O)[C@H](O)[C@H]4O)C(C)(C)[C@@H]3CC[C@]12C` [GINSENOSIDE RB1], for which the result in the series with HDF [1] and in the series with HDF [3] was inactive. Besides, in series [2], the Activity was found to be 9.77%. In addition, the viability at 10 µM in series [4] was 91%.
In the case of `CC(C)=CCC[C@@](C)(O)[C@H]1CC[C@]2(C)[C@@H]1[C@H](O)C[C@@H]1[C@@]3(C)CC[C@H](O[C@@H]4O[C@H](CO)[C@@H](O)[C@H](O)[C@H]4O[C@@H]4O[C@H](CO)[C@@H](O)[C@H](O)[C@H]4O)C(C)(C)[C@@H]3CC[C@]12C`, the result in the series on HDF [1] and in the series with HDF [3] was inactive. The Activity in series [2] worked out at 12.76%. Also, the viability at 10 µM in [4] came to 105%.
As to `CC(C)=CCC[C@](C)(O[C@@H]1O[C@H](CO)[C@@H](O)[C@H](O)[C@H]1O)[C@H]1CC[C@]2(C)[C@@H]1[C@H](O)C[C@@H]1[C@@]3(C)CC[C@H](O)C(C)(C)[C@@H]3[C@@H](O[C@@H]3O[C@H](CO)[C@@H](O)[C@H](O)[C@H]3O)C[C@]12C` [GINSENOSIDE RG1], the result in the series with HDF [1] and in the series on HDF [3] was inactive. In addition, the Activity in series [2] was found to be 20.97%. The viability at 10 µM in series [4] is 98%.
As to `CC(C)=CCC[C@](C)(O)[C@H]1CC[C@]2(C)[C@@H]1[C@H](O)C[C@@H]1[C@@]3(C)CC[C@H](O[C@@H]4O[C@H](CO)[C@@H](O)[C@H](O)[C@H]4O[C@@H]4O[C@H](CO)[C@@H](O)[C@H](O)[C@H]4O)C(C)(C)[C@@H]3CC[C@]12C`, the fold change (FC) in [5] was determined as 2. For the same molecule, the result (in the series on HDF [1]; in series [8]; in the series on HDF [3]; in [11]; in the series on HepG2 [12]) was Active. Moreover, the result (with HDF [6]; in [7]; in the series on HepG2 [13]) was inactive. In addition, the Activity in [2] was 3.07%; in series [9], “Active”; in [10], “tde”; in the series listed under Homo sapiens, “tde”. The concentration in the series with Plasma is 3 nM. Further, the viability at 10 µM in [4] came out at 124%.
